Key:
[1] = tested on: K. pneumoniae 59; assay: Checkerboard broth microdilution MIC of cefepime alone and with taniborbactam; assay type: cell-based, Klebsiella pneumoniae
From the text: (§1) Four previously well-characterized cefepime-resistant isolates, namely one ESBL-producing E. coli, one ESBL-producing K. pneumoniae and two P. aeruginosa (one VIM- and one AmpC constitutively -producing), were used.

[2] = tested on: β-lactamase–producing Enterobacterales and Pseudomonas aeruginosa; assay: Neutropenic murine thigh infection model, all isolates together; assay type: in vivo; settings: against Enterobacterales and AmpC-producing P. aeruginosa
Method: […]. […] […]. All dosing regimens were performed in at least two animals per dosing regimen.
At t = 0 h, 2 h after infection, two mice were humanely euthanized to determine the initial number of cfu/thigh just before treatment. All other animals were euthanized at t = 24 h unless the welfare of the animals indicated earlier termination, following animal welfare regulations. Thighs were taken and moved to a pre-cooled 10 mL plastic tube (Transport Tube, Omnilabo, NL) containing 2 mL PBS (NaCl 8.00 g/L, Na2HPO4 * 2H2O 1.44 g/L, KH2PO4 0.26 g/L, pH 7.2–7.4). Subsequently, thighs were homogenized using the Ultra-Turrax homogenizer (IKA Labortechnik, Germany). For each thigh 10-fold dilution series were prepared and 3 × 10 µL per dilution were plated (Chromagar, bioMérieux, NL). The following day, colonies were counted and the number of cfu/thigh was calculated. The drug effect was then determined as the difference between the log10cfu/thigh values at t = 24 h and t = 0 h (mean value of two mice) expressed as Δlog10cfu, i.e. positive result for growth, zero for static effect and negative for reduction of inoculum (killing).
. […] Free drug concentrations were used in all calculations. […]

[3] = tested on: P. aeruginosa 132; assay: Neutropenic murine thigh infection model; assay type: in vivo, Pseudomonas aeruginosa
Method: (§2) All dosing regimens were performed in at least two animals per dosing regimen.
(§3) At t = 0 h, 2 h after infection, two mice were humanely euthanized to determine the initial number of cfu/thigh just before treatment. […] Subsequently, thighs were homogenized using the Ultra-Turrax homogenizer (IKA Labortechnik, Germany). For each thigh 10-fold dilution series were prepared and 3 × 10 µL per dilution were plated (Chromagar, bioMérieux, NL). The following day, colonies were counted and the number of cfu/thigh was calculated.
(§4) Free drug concentrations were used in all calculations.

[4] = tested on: P. aeruginosa 106; assay: Neutropenic murine thigh infection model; assay type: in vivo, Pseudomonas aeruginosa
Method: as §2, §3, §4

[5] = tested on: E. coli 52; assay: Checkerboard broth microdilution MIC of cefepime alone and with taniborbactam; assay type: cell-based, Escherichia coli
From the text: as §1

[6] = tested on: P. aeruginosa 132; assay: as above; assay type: cell-based, Pseudomonas aeruginosa
From the text: as §1

[7] = tested on: P. aeruginosa 106; assay: as above; assay type: cell-based, Pseudomonas aeruginosa
From the text: as §1

[8] = cefepime monotherapy q2h, extrapolated
[9] = cefepime monotherapy, extrapolated

CO/N=C(\C(=O)N[C@@H]1C(=O)N2C(C(=O)[O-])=C(C[N+]3(C)CCCC3)CS[C@H]12)c1csc(N)n1 [cefepime, Cefepime]
Cefepime MIC at taniborbactam 0.03 mg/L ([1]; K. pneumoniae 59, +taniborbactam 0.03 mg/L): 64 µg/mL | Cefepime MIC at taniborbactam 0.06 mg/L ([1]; K. pneumoniae 59, +taniborbactam 0.06 mg/L): 32 µg/mL | Cefepime MIC at taniborbactam 0.125 mg/L ([1]; K. pneumoniae 59, +taniborbactam 0.125 mg/L): 8 µg/mL | Cefepime MIC at taniborbactam 0.25 mg/L ([1]; K. pneumoniae 59, +taniborbactam 0.25 mg/L): 2 µg/mL | Cefepime MIC at taniborbactam 0.5 mg/L ([1]; K. pneumoniae 59, +taniborbactam 0.5 mg/L): 1 µg/mL | Cefepime MIC at taniborbactam 1 mg/L ([1]; K. pneumoniae 59, +taniborbactam 1 mg/L): 1 µg/mL | Cefepime MIC at taniborbactam 2 mg/L ([1]; K. pneumoniae 59, +taniborbactam 2 mg/L): 1 µg/mL | Cefepime MIC at taniborbactam 4 mg/L (potMIC) ([1]; K. pneumoniae 59, +taniborbactam 4 mg/L): 0.5 µg/mL | MIC ([1]; Klebsiella pneumoniae, 59, read-out: Cefepime MIC (mg/L) alone): 256 mg/L | Effect of cefepime alone [2]: marginally reached stasis | 1 log10 kill: q2h dose, mg/kg ([3]; cefepime monotherapy): 59.9 mg/kg | 1 log10 kill: %ƒT > MIC ([3]; cefepime monotherapy q2h): 32.4% | 1 log10 kill: Total daily dose, mg/kg ([3]; cefepime monotherapy q2h): 718.3 mg/kg | Stasis: %ƒT > MIC ([3]; cefepime monotherapy q2h): 8.9% | Stasis: Total daily dose ([3]; cefepime monotherapy q2h s.c. 24 h): 180.8 mg/kg | Cefepime %fT > potMIC ([3]; cefepime q2h 8 mg/kg, potMIC 1 mg/L (with 4 mg/L taniborbactam)): 46.10% | 1 log10 kill: %ƒT > MIC [4, 8]: (47.4) % | 1 log10 kill: Total daily dose, mg/kg [4, 8]: (3484.4) mg/kg | Stasis: %ƒT > MIC [4, 8]: (36.9) % | Stasis: Total daily dose, mg/kg ([4]; cefepime monotherapy q2h s.c. 24 h, extrapolated): (1901.6) mg/kg | 1 log10 kill: q2h dose, mg/kg [4, 9]: (290.4) mg/kg | Stasis: q2h dose, mg/kg [4, 9]: (158.5) mg/kg | Cefepime %fT > MIC ([4]; cefepime q2h 64 mg/kg, MIC 32 mg/L): 22.10% | Cefepime MIC at taniborbactam 0.03 mg/L ([5]; E. coli 52, +taniborbactam 0.03 mg/L): 0.5 µg/mL | Cefepime MIC at taniborbactam 0.06 mg/L ([5]; E. coli 52, +taniborbactam 0.06 mg/L): 0.5 µg/mL | Cefepime MIC at taniborbactam 0.125 mg/L ([5]; E. coli 52, +taniborbactam 0.125 mg/L): 0.25 µg/mL | Cefepime MIC at taniborbactam 0.25 mg/L ([5]; E. coli 52, +taniborbactam 0.25 mg/L): 0.125 µg/mL | Cefepime MIC at taniborbactam 0.5 mg/L ([5]; E. coli 52, +taniborbactam 0.5 mg/L): 0.06 µg/mL | Cefepime MIC at taniborbactam 1 mg/L ([5]; E. coli 52, +taniborbactam 1 mg/L): 0.125 µg/mL | Cefepime MIC at taniborbactam 2 mg/L ([5]; E. coli 52, +taniborbactam 2 mg/L): 0.06 µg/mL | Cefepime MIC at taniborbactam 4 mg/L (potMIC) ([5]; E. coli 52, +taniborbactam 4 mg/L): 0.06 µg/mL | MIC ([5]; Escherichia coli, 52, read-out: Cefepime MIC (mg/L) alone): 32 mg/L | Cefepime MIC at taniborbactam 0.03 mg/L ([6]; P. aeruginosa 132, +taniborbactam 0.03 mg/L): 16 µg/mL | Cefepime MIC at taniborbactam 0.06 mg/L ([6]; P. aeruginosa 132, +taniborbactam 0.06 mg/L): 16 µg/mL | Cefepime MIC at taniborbactam 0.125 mg/L ([6]; P. aeruginosa 132, +taniborbactam 0.125 mg/L): 8 µg/mL | Cefepime MIC at taniborbactam 0.25 mg/L ([6]; P. aeruginosa 132, +taniborbactam 0.25 mg/L): 4 µg/mL | Cefepime MIC at taniborbactam 0.5 mg/L ([6]; P. aeruginosa 132, +taniborbactam 0.5 mg/L): 2 µg/mL | Cefepime MIC at taniborbactam 1 mg/L ([6]; P. aeruginosa 132, +taniborbactam 1 mg/L): 1 µg/mL | Cefepime MIC at taniborbactam 2 mg/L ([6]; P. aeruginosa 132, +taniborbactam 2 mg/L): 1 µg/mL | Cefepime MIC at taniborbactam 4 mg/L (potMIC) ([6]; P. aeruginosa 132, +taniborbactam 4 mg/L): 1 µg/mL | MIC ([6]; Pseudomonas aeruginosa, 132, read-out: Cefepime MIC (mg/L) alone): 16 mg/L | Cefepime MIC at taniborbactam 0.03 mg/L ([7]; P. aeruginosa 106, +taniborbactam 0.03 mg/L): 32 µg/mL | Cefepime MIC at taniborbactam 0.06 mg/L ([7]; P. aeruginosa 106, +taniborbactam 0.06 mg/L): 32 µg/mL | Cefepime MIC at taniborbactam 0.125 mg/L ([7]; P. aeruginosa 106, +taniborbactam 0.125 mg/L): 32 µg/mL | Cefepime MIC at taniborbactam 0.25 mg/L ([7]; P. aeruginosa 106, +taniborbactam 0.25 mg/L): 16 µg/mL | Cefepime MIC at taniborbactam 0.5 mg/L ([7]; P. aeruginosa 106, +taniborbactam 0.5 mg/L): 16 µg/mL | Cefepime MIC at taniborbactam 1 mg/L ([7]; P. aeruginosa 106, +taniborbactam 1 mg/L): 16 µg/mL | Cefepime MIC at taniborbactam 2 mg/L ([7]; P. aeruginosa 106, +taniborbactam 2 mg/L): 8 µg/mL | Cefepime MIC at taniborbactam 4 mg/L (potMIC) ([7]; P. aeruginosa 106, +taniborbactam 4 mg/L): 4 µg/mL | MIC ([7]; Pseudomonas aeruginosa, 106, read-out: Cefepime MIC (mg/L) alone): 32 mg/L

Reference: article PMC12802961 (Journal of Antimicrobial Chemotherapy, 2025)
